# Legend:
# [1] = test system: Prostate in an Intact Male Rat; experiment: Reducing effect in the weight of the prostate in an intact male rat (systemic antiandrogen activity); format: in vivo, male rats of the Sprague Dawley strain; conditions: day 0 to day 4 then day 7 to day 10, intact male rats, compared to animals treated with solvent only
# Protocol: The experiment is carried out over two weeks, except for the weekend.
# The product can be administered by oral, sub-cutaneous or percutaneous route.
# The treatment is carried out from day 0 to day 4 then (after the weekend) from day 7 to day 10. The animals are sacrificed the day after the last treatment by bleeding the carotid artery, the prostates are removed and fixed in demineralized water containing 10% formol for 72 hours. They are then dissected and weighed.
# [2] = test system: Costo-vertebral Gland of the Hamster; experiment: Reducing effect on the costo-vertebral gland of the hamster (local topical antiandrogen activity); format: in vivo, male hamsters (Charles River breed); conditions: 3 weeks (14 administrations), surface area of C.V.G., male hamsters, compared to animals treated with solvent only
# Protocol: The local activity (topical) of an antiandrogen is determined by the reduction which it produces in the surface area of the costovertebral gland of the hamster (hereafter C.V.G.), an androgen-dependent organ situated on the sides of the animal.
# The animals are male hamsters weighing approximately 140 g, 14 weeks old and originating from the Charles Riverbreed (USA), they are subjected to a long photoperiod (16 hours of light, 8 hours of darkness). The animals are treated every day, except for the weekend, for 3 weeks (14 administrations). The product to be tested is applied, by topical route, to the right-hand G.C.V., the left-hand one serving as the control, the surface of the gland having been shaved beforehand. The animals are sacrificed by bleeding the carotid artery 24 hours after the last treatment. The C.V.G.'s are removed, measured and weighed. The local activity of a product is determined by the % reduction in the surface area of the C.V.G. which it induces in comparison with the 1st of day the experiment and compared to the animals treated with solvent only.
# Androgen Receptor = target: T1, Androgen Receptor (Rattus norvegicus, UniProt P15207); experiment: Affinity for the androgen receptor (relative bond affinity, tritiated testosterone displacement, rat prostate cytosol); format: binding, Male Sprague Dawley EOPS rats
# T1 construct: the prostates are removed, weighed and homogenized at 0° C; from tissue; host or cells: prostate cytosol of castrated male Sprague Dawley rats
# T1 sequence (P15207 1-902): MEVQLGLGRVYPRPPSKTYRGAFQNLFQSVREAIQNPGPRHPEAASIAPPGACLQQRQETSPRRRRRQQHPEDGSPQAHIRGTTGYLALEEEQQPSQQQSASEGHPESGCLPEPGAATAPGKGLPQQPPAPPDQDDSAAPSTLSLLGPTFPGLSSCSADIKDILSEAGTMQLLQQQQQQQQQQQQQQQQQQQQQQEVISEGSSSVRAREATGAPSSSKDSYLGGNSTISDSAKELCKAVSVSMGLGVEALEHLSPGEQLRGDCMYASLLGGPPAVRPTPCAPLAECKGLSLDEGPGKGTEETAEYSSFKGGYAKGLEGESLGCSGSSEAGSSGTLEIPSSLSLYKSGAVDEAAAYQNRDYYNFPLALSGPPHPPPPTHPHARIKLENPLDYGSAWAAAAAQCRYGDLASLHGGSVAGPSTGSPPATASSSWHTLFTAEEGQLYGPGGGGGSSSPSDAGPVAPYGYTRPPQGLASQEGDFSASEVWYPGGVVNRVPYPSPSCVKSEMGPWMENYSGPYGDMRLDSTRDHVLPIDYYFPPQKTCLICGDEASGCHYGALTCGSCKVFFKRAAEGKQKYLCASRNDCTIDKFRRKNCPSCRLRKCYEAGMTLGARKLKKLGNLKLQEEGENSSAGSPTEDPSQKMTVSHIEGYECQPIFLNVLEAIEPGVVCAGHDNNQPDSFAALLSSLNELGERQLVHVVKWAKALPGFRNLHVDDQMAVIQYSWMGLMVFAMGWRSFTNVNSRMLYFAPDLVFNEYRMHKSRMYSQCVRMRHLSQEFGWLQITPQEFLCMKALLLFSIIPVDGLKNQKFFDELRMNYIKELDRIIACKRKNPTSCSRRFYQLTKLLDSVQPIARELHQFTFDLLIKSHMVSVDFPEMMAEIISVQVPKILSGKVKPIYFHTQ
# Protocol: The homogenate is then ultracentrifuged at 0° C., for 30 minutes at 209,000 g.
smiles,measurement,setting,value
"CC(C)OC(=O)OCCCCN1C(=O)N(c2ccc(C#N)c(C(F)(F)F)c2)C(=O)C1(C)C [Example 1, 4-(3-(4-cyano-3-(trifluoromethyl)-phenyl)-5,5-dimethyl-2,4-dioxo-1-imidazolidinyl)butyl and 1-methylethyl carbonate]",% reduction in the prostate weight with 3 mg/kg P.O.,[1],-5%
same,% CVG reduction with 3 μg/jour,[2],-32%
same,RBA: Incubation for 24 hours,Androgen Receptor,19

# Source: patent US6242611A, “Phenylimidazolidines containing nitrooxy or carbonyloxy groups” (Hoechst Marion Roussel, priority 1995, dated 2001)
